In publication PMC6257627, “Target Validation and Identification of Novel Boronate Inhibitors of the Plasmodium falciparum Proteasome” (Journal of Medicinal Chemistry, 2018):
Where “and” joins values, the source holds several entries; their conditions need not be identical. Equal values may be shown once.

Tests used:
[1] = test system: Cam3.II^R539T early ring stages; experiment: Isobologram analysis of interaction with DHA, 3 h pulse; format: cell-based, P. falciparum; conditions: early ring stages of K13 mutant Cam3.II^R539T, 3 h pulses
Protocol: (§1) Figure 1 Structures, proteasome inhibition, and isobologram analysis of selected compounds. (A) Structures of MPI-1, MPI-2, MPI-3, and MPI-4 (compounds 1–4). (B) GFP-DD transfectants were maintained in Shield-1 for 24 h before wash-out prior to setting up experiments. Trophozoites were re-exposed to Shield-1 or exposed to indicated compounds for 3 h. Results are representative of four independent experiments. (i) Cell extracts were analyzed by Western blot using anti-GFP or anti-PfBiP as a loading control. (ii) GFP fluorescence measured by flow cytometry. Dotted line represents background (fluorescence of sample after washout of Shield-1). Data are the mean ± range/2 for the readings in technical duplicate from one experiment. […]
For standard assays of antiplasmodial activity, sorbitol-treated ring stage parasites were incubated with the drugs for 72 h and viability was assessed in the second cycle.[12] […] Cells were then stained with 2 μM Syto-61 (Thermo Fisher Scientific), and their fluorescence was measured by flow cytometry (FACSCanto II cytometer; Becton Dickinson). Data were gated and analyzed using FCS Express software (version 3) to determine parasitemia of each sample. […] Interactions between DHA and MPI-1 or MPI-4 against the K13 mutant (DHA resistant) Cam3.II P. falciparum strain, exposed to a 3 h pulsed treatment, were determined at 4 h after invasion as described previously.[12]

[2] = test system: P. falciparum proteasome activity in cells (GFP-DD transfectants); experiment: GFP-DD reporter degradation in transfectants (Western blot, flow cytometry); format: cell-based; conditions: trophozoites, 3 h exposure
Protocol: as §1, with “experiment. Curves are fitted with the sigmoidal four-parameter model. (C) Isobologram analysis of the interaction of test compounds and DHA. Cam3.II (DHA resistant) parasites at very early ring stages were subjected to 3 h pulses in the presence of different combinations of DHA and test compounds.” for “experiment.”
Trophozoite-stage parasite cultures (GFP-DD parasites) at 5% hematocrit and 5% parasitemia were subjected to the drug treatment indicated in the figure legends at 37 °C. […] Syto-61 and GFP fluorescence was recorded using the FACSCanto II cytometer (Becton Dickinson). […] Parasites were gated based on parasite GFP fluorescence, and values reported are mean fluorescence. […]

Pf20S β5 = Pf20S β5 (Plasmodium falciparum, UniProt A0A5K1K7U1+Q8IJT1); experiment: Kinetic analysis, Pf20S β5 (Ac-WLA-AMC); format: biochemical, P. falciparum; conditions: Figure S3D
Pf20S β5, sequence (Q8IJT1 entry or part of it): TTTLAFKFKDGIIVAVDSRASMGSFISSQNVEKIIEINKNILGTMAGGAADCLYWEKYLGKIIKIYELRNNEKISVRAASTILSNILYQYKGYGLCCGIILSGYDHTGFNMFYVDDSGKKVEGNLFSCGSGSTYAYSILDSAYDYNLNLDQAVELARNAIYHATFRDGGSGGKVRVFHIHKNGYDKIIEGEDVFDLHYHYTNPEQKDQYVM
Pf20S β5, sequence (A0A5K1K7U1 entry or part of it): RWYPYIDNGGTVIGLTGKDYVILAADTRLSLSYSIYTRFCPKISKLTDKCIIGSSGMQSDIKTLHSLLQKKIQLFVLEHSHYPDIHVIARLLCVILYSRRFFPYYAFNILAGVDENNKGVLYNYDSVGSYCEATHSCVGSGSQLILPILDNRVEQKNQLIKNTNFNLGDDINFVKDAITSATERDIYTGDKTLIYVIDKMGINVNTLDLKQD
Protocol: (§2) Figure S 3. Kinetic analysis of MPI -4 against Pf20S and human constitutive 20S proteasome.
(§3) The association rate K on, half -life t 1/2 and equilibrium constant Ki for MPI -4 against human constitutive 20S (A, B) and Pf20S (C, D). 20S β2 (A, C) and β5 (B, D) activities were determined using fluorogenic substrates, Ac -RQR-AMC (human) or Ac -WLR-AMC ( P. falciparum ) and Ac - […]

[3] = molecular target: T1, human constitutive 20S proteasome β5c (Homo sapiens, UniProt P20618+P28074); experiment: Kinetic analysis, human constitutive 20S β5 (Ac-WLA-AMC); format: biochemical; conditions: Figure S3B
T1 construct: Residue positions are calculated at the start of the processed protein, and the first residue (Thr 1)
Protocol: as §2, §3

[4] = molecular target: human constitutive 20S proteasome β2c (Homo sapiens, UniProt P49720+Q99436); experiment: Kinetic analysis, human constitutive 20S β2 (Ac-RQR-AMC); format: biochemical; conditions: Figure S3A
Protocol: as §2, §3

Pf20S β2 = Pf20S β2 (Plasmodium falciparum, UniProt Q8I261+Q8I6T3); experiment: Kinetic analysis, Pf20S β2 (Ac-WLR-AMC); format: biochemical, P. falciparum; conditions: Figure S3C
Pf20S β2, sequence (Q8I6T3 entry or part of it): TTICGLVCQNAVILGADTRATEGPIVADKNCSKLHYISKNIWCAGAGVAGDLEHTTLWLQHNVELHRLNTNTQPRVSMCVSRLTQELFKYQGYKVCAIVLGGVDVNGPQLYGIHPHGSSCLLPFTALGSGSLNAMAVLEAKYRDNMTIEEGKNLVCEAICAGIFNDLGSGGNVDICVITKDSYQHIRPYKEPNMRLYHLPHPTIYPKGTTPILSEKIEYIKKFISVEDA
Pf20S β2, sequence (Q8I261 entry or part of it): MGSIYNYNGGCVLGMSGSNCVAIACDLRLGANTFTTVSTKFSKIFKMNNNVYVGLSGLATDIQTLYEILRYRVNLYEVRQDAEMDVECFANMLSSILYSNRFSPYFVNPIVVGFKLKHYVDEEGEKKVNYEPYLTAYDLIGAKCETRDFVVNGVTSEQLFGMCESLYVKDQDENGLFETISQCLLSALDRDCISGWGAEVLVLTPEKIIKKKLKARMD
Protocol: as §2, §3

[5] = test system: Cam3.II^R539T early ring stages; design: method as in PMID 25901609; conditions: P. falciparum in culture; cited from earlier work
3D7 B2a = experiment: 72 h viability assay, bortezomib-resistant clone B2a; format: cell-based, Plasmodium falciparum; conditions: mean ± SEM, n=3
Protocol: For standard assays of antiplasmodial activity, sorbitol-treated ring stage parasites were incubated with the drugs for 72 h and viability was assessed in the second cycle.[12] Drug pulse assays were performed as described previously.[47] For short pulse assays, tightly synchronized early ring stage parasites (1–3 h after invasion) at 0.2% hematocrit and 1–2% parasitemia were subjected to 3 h drug pulse at 37 °C and returned to culture until parasites reached trophozoite stage of the following cycle. Cells were then stained with 2 μM Syto-61 (Thermo Fisher Scientific), and their fluorescence was measured by flow cytometry (FACSCanto II cytometer; Becton Dickinson). Data were gated and analyzed using FCS Express software (version 3) to determine parasitemia of each sample. Viability represents the parasitemia normalized to untreated and “kill treated” controls, where “kill treated” refers to samples treated with 2 μM DHA for 48–72 h. Interactions between DHA and MPI-1 or MPI-4 against the K13 mutant (DHA resistant) Cam3.II P. falciparum strain, exposed to a 3 h pulsed treatment, were determined at 4 h after invasion as described previously.[12]
Prior to selection, an aliquot of the parental line was stocked as a reference for subsequent whole genome sequencing analysis. […] Paired-end reads were either aligned to the P. falciparum 3D7 reference genome (PlasmoDB version 13.0).

In the case of `CC(=O)N1CCC[C@@H]1C(=O)N[C@@H](C)C(=O)N[C@@H](Cc1ccccc1)B(O)O` [MPI-1], the “interaction with DHA” value [1] is reported as “pronounced synergistic interaction” and the “inhibition of GFP-DD degradation in the absence of Shield-1” value [2] is reported as “a higher concentration of MPI-1 was needed to produce the same level of inhibition”.
For `CC(C)C[C@H](NC(=O)[C@H](Cc1ccccc1)NC(=O)Cc1ccc(O)cc1)B(O)O` [MPI-4], the “interaction with DHA” value [1] was “pronounced synergistic interaction”, the koff (Pf20S β5; read-out: Koff, Pf 20S β5) was 0.000181 s⁻¹ and the kon (Pf20S β5; read-out: association rate Kon, Pf 20S β5) was 41800 M⁻¹ s⁻¹. For the same compound, the Ki (Pf20S β5; equilibrium constant, read-out: Ki, P. falciparum β5) was ~5 nM, the koff ([3]; read-out: Koff, h20S β5) was 0.000109 s⁻¹ and the kon ([3]; read-out: association rate Kon, h20S β5) was 848000 M⁻¹ s⁻¹. For the same compound, the Ki ([3]; equilibrium constant) was 0.1 nM, the koff ([4]; read-out: Koff, h20S β2) was 0.00485 s⁻¹ and the kon ([4]; read-out: association rate Kon, h20S β2) was 9960 M⁻¹ s⁻¹. For the same compound, the Ki ([4]; equilibrium constant) was 487 nM and 490 nM, the koff (Pf20S β2; read-out: Koff, Pf 20S β2) was 0.000173 s⁻¹ and the kon (Pf20S β2; read-out: association rate Kon, Pf 20S β2) was 27200 M⁻¹ s⁻¹. The Ki (Pf20S β2; equilibrium constant, read-out: Ki, P. falciparum β2) was ~5 nM.
For `CC(C)C[C@H](NC(=O)[C@H](Cc1ccccc1)NC(=O)c1cnccn1)B(O)O` [bortezomib, reference compound], the “interaction with DHA (earlier work)” value [5] is listed as “strong synergism”, the “LD50 (72 h), 3D7 B2a” value (3D7 B2a) is listed as 1.1 ± 0.1 µM and the “inhibition of GFP-DD degradation in the absence of Shield-1” value [2] is listed as “prevented GFP-DD degradation”.
